Reference: patent US10765114B2, “4-amino-6-(pyridyl and 2-substitutedphenyl)-picolinates and 6-amino-2-(pyridyl and 2-substitutedphenyl)-pyrimidine-4-carboxylates and their use as herbicides” (Dow AgroSciences LLC, priority 2013, dated 2020)

system: Key Broadleaf Weed and Crop Species; assay: Post-Emergent Test II (Table 5); type: in vivo; details: Abutilon theophrasti, post-emergence, 336 h, ABUTH: velvetleaf (Abutilon theophrasti), application rate 70 (kg ai/ha; footnote: g ai/ha), read-out: Visual Growth Reduction (%) 14 Days After Application ABUTH
How it was run: (§1)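 Post-emergence greenhouse spray, 1st-2nd true leaf stage; track sprayer, 187 L/ha; acetone/DMSO stock diluted in aqueous acetone/IPA/DMSO with Atplus 411F and Triton X-155; rates 1× to 1/16×; subirrigated; visual injury 0 (none) to 100% (complete kill) at 14 days.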

Q: For `Nc1cc(-c2ccc(Cl)c(F)c2CF)nc(C(=O)O)c1Cl` [Compound 80, 4-Amino-3-chloro-6-(4-chloro-3-fluoro-2-(fluoromethyl)phenyl)picolinic acid], which pest or weed control at 70 g/ha is on record?
A: 75 to 84%

same assay, conditions: Abutilon theophrasti, post-emergence, 336 h, ABUTH: velvetleaf (Abutilon theophrasti), application rate 140 (kg ai/ha; footnote: g ai/ha), read-out: Visual Growth Reduction (%) 14 Days After Application ABUTH

Q: With `Nc1cc(-c2ccc(Cl)c(F)c2CF)nc(C(=O)O)c1Cl` [Compound 80, 4-Amino-3-chloro-6-(4-chloro-3-fluoro-2-(fluoromethyl)phenyl)picolinic acid] as the compound, how does the pest or weed control at 140 g/ha read?
A: 75 to 84%

same assay, conditions: Amaranthus retroflexus, post-emergence, 336 h, AMARE: redroot pigweed (Amaranthus retroflexus), application rate 70 (kg ai/ha; footnote: g ai/ha), read-out: Visual Growth Reduction (%) 14 Days After Application AMARE

Q: For `Nc1cc(-c2ccc(Cl)c(F)c2CF)nc(C(=O)O)c1Cl` [Compound 80, 4-Amino-3-chloro-6-(4-chloro-3-fluoro-2-(fluoromethyl)phenyl)picolinic acid], which pest or weed control at 70 g/ha is on record?
A: 95 to 100%

same assay, conditions: Amaranthus retroflexus, post-emergence, 336 h, AMARE: redroot pigweed (Amaranthus retroflexus), application rate 140 (kg ai/ha; footnote: g ai/ha), read-out: Visual Growth Reduction (%) 14 Days After Application AMARE

Q: For `Nc1cc(-c2ccc(Cl)c(F)c2CF)nc(C(=O)O)c1Cl` [Compound 80, 4-Amino-3-chloro-6-(4-chloro-3-fluoro-2-(fluoromethyl)phenyl)picolinic acid], which pest or weed control at 140 g/ha is on record?
A: 95 to 100%

same assay, conditions: Brassica napus, post-emergence, 336 h, BRSSS: oilseed rape, canola (Brassica napus), application rate 70 (kg ai/ha; footnote: g ai/ha), read-out: Visual Growth Reduction (%) 14 Days After Application BRSSS

Q: For `Nc1cc(-c2ccc(Cl)c(F)c2CF)nc(C(=O)O)c1Cl` [Compound 80, 4-Amino-3-chloro-6-(4-chloro-3-fluoro-2-(fluoromethyl)phenyl)picolinic acid], which pest or weed control at 70 g/ha is on record?
A: 95 to 100%

same assay, conditions: Brassica napus, post-emergence, 336 h, BRSSS: oilseed rape, canola (Brassica napus), application rate 140 (kg ai/ha; footnote: g ai/ha), read-out: Visual Growth Reduction (%) 14 Days After Application BRSSS

Q: How did the pest or weed control at 140 g/ha turn out when `Nc1cc(-c2ccc(Cl)c(F)c2CF)nc(C(=O)O)c1Cl` [Compound 80, 4-Amino-3-chloro-6-(4-chloro-3-fluoro-2-(fluoromethyl)phenyl)picolinic acid] was run?
A: 95 to 100%

same assay, conditions: Chenopodium album, post-emergence, 336 h, CHEAL: lambsquarters (Chenopodium album), application rate 70 (kg ai/ha; footnote: g ai/ha), read-out: Visual Growth Reduction (%) 14 Days After Application CHEAL

Q: With `Nc1cc(-c2ccc(Cl)c(F)c2CF)nc(C(=O)O)c1Cl` [Compound 80, 4-Amino-3-chloro-6-(4-chloro-3-fluoro-2-(fluoromethyl)phenyl)picolinic acid] as the compound, how does the pest or weed control at 70 g/ha read?
A: 95 to 100%

same assay, conditions: Chenopodium album, post-emergence, 336 h, CHEAL: lambsquarters (Chenopodium album), application rate 140 (kg ai/ha; footnote: g ai/ha), read-out: Visual Growth Reduction (%) 14 Days After Application CHEAL

Q: How did the pest or weed control at 140 g/ha turn out when `Nc1cc(-c2ccc(Cl)c(F)c2CF)nc(C(=O)O)c1Cl` [Compound 80, 4-Amino-3-chloro-6-(4-chloro-3-fluoro-2-(fluoromethyl)phenyl)picolinic acid] was run?
A: 95 to 100%

same assay, conditions: Euphorbia heterophylla, post-emergence, 336 h, EPHHL: wild poinsettia (Euphorbia heterophylla), application rate 70 (kg ai/ha; footnote: g ai/ha), read-out: Visual Growth Reduction (%) 14 Days After Application EPHHL

Q: `Nc1cc(-c2ccc(Cl)c(F)c2CF)nc(C(=O)O)c1Cl` [Compound 80, 4-Amino-3-chloro-6-(4-chloro-3-fluoro-2-(fluoromethyl)phenyl)picolinic acid] was tested. Which pest or weed control at 70 g/ha did it give?
A: 0 to 29%

same assay, conditions: Euphorbia heterophylla, post-emergence, 336 h, EPHHL: wild poinsettia (Euphorbia heterophylla), application rate 140 (kg ai/ha; footnote: g ai/ha), read-out: Visual Growth Reduction (%) 14 Days After Application EPHHL

Q: `Nc1cc(-c2ccc(Cl)c(F)c2CF)nc(C(=O)O)c1Cl` [Compound 80, 4-Amino-3-chloro-6-(4-chloro-3-fluoro-2-(fluoromethyl)phenyl)picolinic acid] was tested. Which pest or weed control at 140 g/ha did it give?
A: 0 to 29%

same assay, conditions: Helianthus annuus, post-emergence, 336 h, HELAN: sunflower (Helianthus annuus), application rate 70 (kg ai/ha; footnote: g ai/ha), read-out: Visual Growth Reduction (%) 14 Days After Application HELAN

Q: `Nc1cc(-c2ccc(Cl)c(F)c2CF)nc(C(=O)O)c1Cl` [Compound 80, 4-Amino-3-chloro-6-(4-chloro-3-fluoro-2-(fluoromethyl)phenyl)picolinic acid] was tested. Which pest or weed control at 70 g/ha did it give?
A: 85 to 94%

same assay, conditions: Helianthus annuus, post-emergence, 336 h, HELAN: sunflower (Helianthus annuus), application rate 140 (kg ai/ha; footnote: g ai/ha), read-out: Visual Growth Reduction (%) 14 Days After Application HELAN

Q: With `Nc1cc(-c2ccc(Cl)c(F)c2CF)nc(C(=O)O)c1Cl` [Compound 80, 4-Amino-3-chloro-6-(4-chloro-3-fluoro-2-(fluoromethyl)phenyl)picolinic acid] as the compound, how does the pest or weed control at 140 g/ha read?
A: 85 to 94%

same assay, conditions: Viola tricolor, post-emergence, 336 h, VIOTR: wild pansy (Viola tricolor), application rate 70 (kg ai/ha; footnote: g ai/ha), read-out: Visual Growth Reduction (%) 14 Days After Application VIOTR

Q: `Nc1cc(-c2ccc(Cl)c(F)c2CF)nc(C(=O)O)c1Cl` [Compound 80, 4-Amino-3-chloro-6-(4-chloro-3-fluoro-2-(fluoromethyl)phenyl)picolinic acid] was tested. Which pest or weed control at 70 g/ha did it give?
A: 0 to 29%

same assay, conditions: Viola tricolor, post-emergence, 336 h, VIOTR: wild pansy (Viola tricolor), application rate 140 (kg ai/ha; footnote: g ai/ha), read-out: Visual Growth Reduction (%) 14 Days After Application VIOTR

Q: For `Nc1cc(-c2ccc(Cl)c(F)c2CF)nc(C(=O)O)c1Cl` [Compound 80, 4-Amino-3-chloro-6-(4-chloro-3-fluoro-2-(fluoromethyl)phenyl)picolinic acid], which pest or weed control at 140 g/ha is on record?
A: 0 to 29%

system: Key Grass and Sedge Weeds as well as Grass Crops; assay: Post-Emergent Test II (Table 6); type: in vivo; details: post-emergence, 336 h, CYPSS, 70 g ai/ha, 14 days after application, read-out: Visual Growth Reduction (%) 14 Days After Application CYPSS
How it was run: as §1

Q: For `Nc1cc(-c2ccc(Cl)c(F)c2CF)nc(C(=O)O)c1Cl` [Compound 80, 4-Amino-3-chloro-6-(4-chloro-3-fluoro-2-(fluoromethyl)phenyl)picolinic acid], which pest or weed control at 70 g/ha is on record?
A: 0 to 29%

same assay, conditions: post-emergence, 336 h, CYPSS, 140 g ai/ha, 14 days after application, read-out: Visual Growth Reduction (%) 14 Days After Application CYPSS

Q: For `Nc1cc(-c2ccc(Cl)c(F)c2CF)nc(C(=O)O)c1Cl` [Compound 80, 4-Amino-3-chloro-6-(4-chloro-3-fluoro-2-(fluoromethyl)phenyl)picolinic acid], which pest or weed control at 140 g/ha is on record?
A: 0 to 29%

same assay, conditions: post-emergence, 336 h, DIGSA: crabgrass (Digitaria sanguinalis), 70 g ai/ha, 14 days after application, read-out: Visual Growth Reduction (%) 14 Days After Application DIGSA

Q: How did the pest or weed control at 70 g/ha turn out when `Nc1cc(-c2ccc(Cl)c(F)c2CF)nc(C(=O)O)c1Cl` [Compound 80, 4-Amino-3-chloro-6-(4-chloro-3-fluoro-2-(fluoromethyl)phenyl)picolinic acid] was run?
A: 0 to 29%

same assay, conditions: post-emergence, 336 h, DIGSA: crabgrass (Digitaria sanguinalis), 140 g ai/ha, 14 days after application, read-out: Visual Growth Reduction (%) 14 Days After Application DIGSA

Q: Which pest or weed control at 140 g/ha does the source give for `Nc1cc(-c2ccc(Cl)c(F)c2CF)nc(C(=O)O)c1Cl` [Compound 80, 4-Amino-3-chloro-6-(4-chloro-3-fluoro-2-(fluoromethyl)phenyl)picolinic acid] here?
A: 0 to 29%

same assay, conditions: post-emergence, 336 h, ECHSS, 70 g ai/ha, 14 days after application, read-out: Visual Growth Reduction (%) 14 Days After Application ECHSS

Q: Which pest or weed control at 70 g/ha does the source give for `Nc1cc(-c2ccc(Cl)c(F)c2CF)nc(C(=O)O)c1Cl` [Compound 80, 4-Amino-3-chloro-6-(4-chloro-3-fluoro-2-(fluoromethyl)phenyl)picolinic acid] here?
A: 0 to 29%

same assay, conditions: post-emergence, 336 h, ECHSS, 140 g ai/ha, 14 days after application, read-out: Visual Growth Reduction (%) 14 Days After Application ECHSS

Q: `Nc1cc(-c2ccc(Cl)c(F)c2CF)nc(C(=O)O)c1Cl` [Compound 80, 4-Amino-3-chloro-6-(4-chloro-3-fluoro-2-(fluoromethyl)phenyl)picolinic acid] was tested. Which pest or weed control at 140 g/ha did it give?
A: 0 to 29%

same assay, conditions: post-emergence, 336 h, ORYSS (crop), 70 g ai/ha, 14 days after application, read-out: Visual Growth Reduction (%) 14 Days After Application ORYSS

Q: `Nc1cc(-c2ccc(Cl)c(F)c2CF)nc(C(=O)O)c1Cl` [Compound 80, 4-Amino-3-chloro-6-(4-chloro-3-fluoro-2-(fluoromethyl)phenyl)picolinic acid] was tested. Which pest or weed control at 70 g/ha did it give?
A: 0 to 29%

same assay, conditions: post-emergence, 336 h, ORYSS (crop), 140 g ai/ha, 14 days after application, read-out: Visual Growth Reduction (%) 14 Days After Application ORYSS

Q: `Nc1cc(-c2ccc(Cl)c(F)c2CF)nc(C(=O)O)c1Cl` [Compound 80, 4-Amino-3-chloro-6-(4-chloro-3-fluoro-2-(fluoromethyl)phenyl)picolinic acid] was tested. Which pest or weed control at 140 g/ha did it give?
A: 0 to 29%

same assay, conditions: post-emergence, 336 h, SETFA: giant foxtail (Setaria faberi), 70 g ai/ha, 14 days after application, read-out: Visual Growth Reduction (%) 14 Days After Application SETFA

Q: For `Nc1cc(-c2ccc(Cl)c(F)c2CF)nc(C(=O)O)c1Cl` [Compound 80, 4-Amino-3-chloro-6-(4-chloro-3-fluoro-2-(fluoromethyl)phenyl)picolinic acid], which pest or weed control at 70 g/ha is on record?
A: 0 to 29%

same assay, conditions: post-emergence, 336 h, SETFA: giant foxtail (Setaria faberi), 140 g ai/ha, 14 days after application, read-out: Visual Growth Reduction (%) 14 Days After Application SETFA

Q: Which pest or weed control at 140 g/ha does the source give for `Nc1cc(-c2ccc(Cl)c(F)c2CF)nc(C(=O)O)c1Cl` [Compound 80, 4-Amino-3-chloro-6-(4-chloro-3-fluoro-2-(fluoromethyl)phenyl)picolinic acid] here?
A: 0 to 29%

same assay, conditions: post-emergence, 336 h, SORVU: grain sorghum (Sorghum vulgare), 70 g ai/ha, 14 days after application, read-out: Visual Growth Reduction (%) 14 Days After Application SORVU

Q: With `Nc1cc(-c2ccc(Cl)c(F)c2CF)nc(C(=O)O)c1Cl` [Compound 80, 4-Amino-3-chloro-6-(4-chloro-3-fluoro-2-(fluoromethyl)phenyl)picolinic acid] as the compound, how does the pest or weed control at 70 g/ha read?
A: 0 to 29%

same assay, conditions: post-emergence, 336 h, SORVU: grain sorghum (Sorghum vulgare), 140 g ai/ha, 14 days after application, read-out: Visual Growth Reduction (%) 14 Days After Application SORVU

Q: `Nc1cc(-c2ccc(Cl)c(F)c2CF)nc(C(=O)O)c1Cl` [Compound 80, 4-Amino-3-chloro-6-(4-chloro-3-fluoro-2-(fluoromethyl)phenyl)picolinic acid] was tested. Which pest or weed control at 140 g/ha did it give?
A: 0 to 29%

same assay, conditions: post-emergence, 336 h, TRZSS (crop), 70 g ai/ha, 14 days after application, read-out: Visual Growth Reduction (%) 14 Days After Application TRZSS

Q: Which pest or weed control at 70 g/ha does the source give for `Nc1cc(-c2ccc(Cl)c(F)c2CF)nc(C(=O)O)c1Cl` [Compound 80, 4-Amino-3-chloro-6-(4-chloro-3-fluoro-2-(fluoromethyl)phenyl)picolinic acid] here?
A: 0 to 29%

same assay, conditions: post-emergence, 336 h, TRZSS (crop), 140 g ai/ha, 14 days after application, read-out: Visual Growth Reduction (%) 14 Days After Application TRZSS

Q: How did the pest or weed control at 140 g/ha turn out when `Nc1cc(-c2ccc(Cl)c(F)c2CF)nc(C(=O)O)c1Cl` [Compound 80, 4-Amino-3-chloro-6-(4-chloro-3-fluoro-2-(fluoromethyl)phenyl)picolinic acid] was run?
A: 0 to 29%

same assay, conditions: post-emergence, 336 h, ZEAMX: maize, corn (Zea mays), 70 g ai/ha, 14 days after application, read-out: Visual Growth Reduction (%) 14 Days After Application ZEAMX

Q: How did the pest or weed control at 70 g/ha turn out when `Nc1cc(-c2ccc(Cl)c(F)c2CF)nc(C(=O)O)c1Cl` [Compound 80, 4-Amino-3-chloro-6-(4-chloro-3-fluoro-2-(fluoromethyl)phenyl)picolinic acid] was run?
A: 0 to 29%

same assay, conditions: post-emergence, 336 h, ZEAMX: maize, corn (Zea mays), 140 g ai/ha, 14 days after application, read-out: Visual Growth Reduction (%) 14 Days After Application ZEAMX

Q: `Nc1cc(-c2ccc(Cl)c(F)c2CF)nc(C(=O)O)c1Cl` [Compound 80, 4-Amino-3-chloro-6-(4-chloro-3-fluoro-2-(fluoromethyl)phenyl)picolinic acid] was tested. Which pest or weed control at 140 g/ha did it give?
A: 0 to 29%
